Reference: publication PMC9969023 (European Journal of Nuclear Medicine and Molecular Imaging, 2023)

## ^18F-FDG
Patient 2, PET/MR
  SUVmax of paratracheal enlarged lymph nodes: 21.50
Patient 2, PET/MR, 3.7 MBq/kg, 50 to 70 min P.I.
  SUVmax of thickened esophagus: 28.24
Patient 2, PET/MR, nodule in left lung lower lobe
  SUVmax of lung nodule: 1.60
Patient 3, peritoneal metastases, result in words
  uptake in peritoneal nodules: mild increased uptake
